Experimental data taken from patent publication US20230092163A1, “COMPOUNDS AND COMPOSITIONS FOR TREATING CONDITIONS ASSOCIATED WITH STING ACTIVITY” (IFM Due, Inc., priority 2019, published 2023).

Biological target: STING (Homo sapiens, UniProt Q86WV6, G230A/H232R/R293Q/R71H)
Experiment: STING reporter assay: THP1-Dual KO-IFNAR2 cells stimulated with 2′3′cGAMP, luciferase reporter activity
Type: cell-based
Settings: 15 μM 2′3′cGAMP, 24h
Method: STING pathway activation by the compounds described herein were measured using THP1-Dual™ cells (KO-IFNAR2).
THP1-Dual™ KO-IFNAR2 Cells (obtained from invivogen) were maintained in RPMI, 10% FCS, 5 ml P/S, 2 mM L-glut, 10 mM Hepes, and 1 mM sodium pyruvate. Compounds were spotted in empty 384 well tissue culture plates (Greiner 781182) by Echo for a final concentration of 0.0017-100 μM. Cells were plated into the TC plates at 40 μL per well, 2×10E6 cells/mL. For activation with STING ligand, 2′3′cGAMP (MW 718.38, obtained from Invivogen), was prepared in Optimem media.
The following solutions were prepared for each 1×384 plate: • Solution A: 2 mL Optimem with one of the following stimuli: • 60 uL of 10 mM 2′3′cGAMP ->150 μM stock • Solution B: 2 mL Optimem with 60 μL Lipofectamine 2000->Incubate 5 min at RT
2 mL of solution A and 2 ml Solution B was mixed and incubated for 20 min at room temperature (RT). 20 uL of transfection solution (A+B) was added on top of the plated cells, with a final 2′3′cGAMP concentration of 15 μM. The plates were then centrifuged immediately at 340 g for 1 minute, after which they were incubated at 37° C., 5% CO2, >98% humidity for 24h. Luciferase reporter activity was then measured. EC50 values were calculated by using standard methods known in the art.
Luciferase reporter assay: 10 μL of supernatant from the assay was transferred to white 384-plate with flat bottom and squared wells. One pouch of QUANTI-Luc™ Plus was dissolved in 25 mL of water. 100 μL of QLC Stabilizer per 25 mL of QUANTI-Luc™ Plus solution was added. 50 μL of QUANTI-Luc™ Plus/QLC solution per well is then added. Luminescence is measured on a Platereader (e.g., Spectramax I3X (Molecular Devices GF3637001)).
Luciferase reporter activity was then measured. EC50 values were calculated by using standard methods known in the art.

STING, sequence (Q86WV6 whole entry R71H/G230A/H232R/R293Q): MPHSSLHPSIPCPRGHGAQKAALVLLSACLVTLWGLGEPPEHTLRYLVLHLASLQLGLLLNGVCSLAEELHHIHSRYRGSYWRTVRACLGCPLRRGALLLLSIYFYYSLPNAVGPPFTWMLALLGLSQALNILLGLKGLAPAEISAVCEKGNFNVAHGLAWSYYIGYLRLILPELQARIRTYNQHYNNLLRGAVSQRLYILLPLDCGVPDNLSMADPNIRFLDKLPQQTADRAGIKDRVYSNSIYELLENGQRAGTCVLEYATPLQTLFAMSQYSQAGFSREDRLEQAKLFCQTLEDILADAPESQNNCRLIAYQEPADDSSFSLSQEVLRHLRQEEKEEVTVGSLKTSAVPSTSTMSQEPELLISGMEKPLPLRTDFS

| Structure (SMILES) | EC50 (numeric bounds) [µM] | EC50 (class symbols) [µM] |
| --- | --- | --- |
| Cc1ccccc1CCNC(=O)Nc1ccc2[nH]ccc2c1 [Compound 324] | > 30 |  |
| Cc1ccc(CNC(=O)Nc2ccc3cc[nH]c3c2)cc1 [Compound 192] | > 30 |  |
| COc1ccc(Nc2ccc3cc[nH]c3c2)nc1C [Compound 599, N-(5-methoxy-6-methylpyridin-2-yl)-1H-indol-6-amine] | > 30 |  |
| CC(=O)n1ccc2ccc(NC(=O)Nc3ccc(C(F)(F)F)cc3)cc21 [Compound 257] |  | 1 to 5 |
| O=C(NCc1ccc(Cl)c(C(F)(F)F)c1)Nc1ccc2[nH]ccc2c1 [Compound 320] | > 30 |  |
| Cc1cc(Nc2ccc3ccc(Cl)cc3n2)cc2[nH]ccc12 [Compound 387] |  | 1 to 5 |
| O=C(NCC1(c2cccc(Cl)c2)CCOCC1)Nc1ccc2[nH]ccc2c1 [Compound 274] | > 30 |  |
| O=C(Nc1ccc2cc[nH]c2c1)NC1CCc2ccc(C(F)(F)F)cc21 (stereo not shown) [Compound 181] |  | 1 to 5 |
| O=C(NCc1ccc(C(F)(F)F)c(Cl)c1)Nc1ccc2[nH]ccc2c1 [Compound 319] | > 30 |  |
| c1cc2ccc(Nc3ccc(C4CC4)cn3)cc2[nH]1 [Compound 411, N-(5-cyclopropylpyridin-2-yl)-1H-indol-6-amine] | > 30 |  |
| Cc1cc(C)nc(NC(=O)Nc2ccc3[nH]ccc3c2)c1 [Compound 335] | > 30 |  |
| O=C(NCCc1cccc(Cl)c1)Nc1ccc2cc[nH]c2c1 [Compound 210] |  | 1 to 5 |
| CCCCc1ccc(NC(=O)Nc2ccc3[nH]ccc3c2)cc1 [Compound 378] |  | 1 to 5 |
| O=C(Nc1ccc(C(F)(F)F)cc1)Nc1ccc2[nH]cc(-c3cn[nH]c3)c2c1 [Compound 345] |  | 5 to 100 |
| FC(F)(F)Oc1cccc(Nc2ccc3cc[nH]c3c2)n1 [Compound 409, N-(6-(trifluoromethoxy)pyridin-2-yl)-1H-indol-6-amine] | > 30 |  |
| O=C(Nc1cccc(C(F)(F)F)c1)Nc1ccc2c(F)c[nH]c2c1 [Compound 523] |  | 1 to 5 |
| N#Cc1ccc(NC(=O)Nc2ccc3[nH]ccc3c2)cc1 [Compound 361] | > 30 |  |
| Cc1nc(Nc2ccc3cc[nH]c3c2)ccc1C#N [Compound 598, 6-((1H-indol-6-yl)amino)-2-methylnicotinonitrile] | > 30 |  |
| Cn1cc(-c2c[nH]c3cc(NC(=O)Nc4ccc(C(F)(F)F)cc4)ccc23)cn1 [Compound 545] | > 30 |  |

| Structure (SMILES) | EC50 (numeric bounds) [µM] | EC50 (class symbols) [µM] |
| --- | --- | --- |
| CCCCCCCCc1ccc(NC(=O)Nc2ccc3cc[nH]c3c2)cc1 [Compound 237] |  | 0.2 to 1 |
| O=C(Nc1ccc(S(=O)(=O)C(F)(F)F)cc1)Nc1ccc2[nH]ccc2c1 [Compound 289] |  | 5 to 100 |
| CN(C)Cc1cc(NC(=O)Nc2ccc(C(F)(F)F)cc2)cc2[nH]ccc12 [Compound 546] |  | 5 to 100 |
| CC(NC(=O)Nc1cc(Cl)c2cc[nH]c2c1)c1cc(Cl)cc(C(F)(F)F)c1 (stereo not shown) [Compound 537] |  | 0.2 to 1 |
| COC1CN(c2ncc(NC(=O)Nc3cc(Cl)c4cc[nH]c4c3)cc2C)C1 [Compound 498] | > 30 |  |
| CCCCC1CCC(NC(=O)Nc2ccc3cc(C)[nH]c3c2)CC1 (stereo not shown) [Compound 266] | > 100 |  |
| Cn1cc(-c2c[nH]c3ccc(NC(=O)Nc4ccc(C(F)(F)F)cc4)cc23)cn1 [Compound 366] | > 30 |  |
| CCOc1ccc(Nc2ccc3cc[nH]c3c2)nc1C [Compound 594, N-(5-ethoxy-6-methylpyridin-2-yl)-1H-indol-6-amine] |  | 5 to 100 |
| CC(C)(C)OC(=O)N1CC(CCNC(=O)Nc2ccc3cc[nH]c3c2)C1 [Compound 178] | > 30 |  |
| COc1ccc2c(Cl)cc(Nc3ccc4cc[nH]c4c3)nc2c1 [Compound 588, 4-chloro-N-(1H-indol-6-yl)-7-methoxyquinolin-2-amine] |  | 1 to 5 |
| c1ccc(-c2ccc(Nc3ccc4cc[nH]c4c3)nc2)cc1 [Compound 424, N-(5-phenylpyridin-2-yl)-1H-indol-6-amine] |  | 1 to 5 |
| Cc1ccc2nc(Nc3ccc4cc[nH]c4c3)ccc2c1C(F)(F)F [Compound 549] |  | 0.2 to 1 |
| O=C(Nc1ccc2cc[nH]c2c1)Nc1ccon1 [Compound 190] | > 30 |  |
| O=C(Nc1cnc2ccc(C(F)(F)F)cc2c1)Nc1ccc2[nH]ccc2c1 [Compound 286] | > 30 |  |
| O=C(NCc1cnccn1)Nc1ccc2[nH]ccc2c1 [Compound 333] | > 30 |  |
| O=C(NCCc1ccccc1Cl)Nc1ccc2[nH]ccc2c1 [Compound 355] | > 30 |  |
| c1cc2c(c(Nc3ccc4cc[nH]c4c3)n1)CCCC2 [Compound 431, N-(1H-indol-6-yl)-5,6,7,8-tetrahydroisoquinolin-1-amine] |  | 5 to 100 |
| O=C(Nc1ccc(C(F)(F)F)cc1)Nc1ccc2[nH]cc(NC(=O)Nc3ccc(C(F)(F)F)cc3)c2c1 [Compound 371] |  | 0.2 to 1 |
| O=C(NCCOc1ccccc1C(F)(F)F)Nc1ccc2cc[nH]c2c1 [Compound 524] |  | 1 to 5 |

The next lines start with the values.

| EC50 (numeric bounds) [µM] | EC50 (class symbols) [µM] | Structure (SMILES) |
| --- | --- | --- |
|  | 5 to 100 | Cn1ccc2ccc(NC(=O)Nc3ccc(C(F)(F)F)cc3)cc21 [Compound 268] |
| > 30 |  | Cc1nc(Nc2ccc3cc[nH]c3c2)ccc1Br [Compound 399, N-(5-bromo-6-methylpyridin-2-yl)-1H-indol-6-amine] |
| > 30 |  | CCCCCCCCc1ccc(NC(=O)Nc2ccc3[nH]ccc3c2)cc1 [Compound 352] |
| > 100 |  | N#Cc1c[nH]c2ccc(NC(=O)Nc3ccc(C(F)(F)F)cc3)cc12 [Compound 373] |
|  | 1 to 5 | O=C(NCCSCc1c(Cl)cccc1Cl)Nc1ccc2cc[nH]c2c1 [Compound 204] |
|  | 5 to 100 | Cc1cc2cc[nH]c2cc1NC(=O)Nc1ccc(C(F)(F)F)cc1 [Compound 265] |
| > 30 |  | CN(C)S(=O)(=O)c1ccc(NC(=O)Nc2ccc3[nH]ccc3c2)cc1 [Compound 292] |
|  | 5 to 100 | N#Cc1cc2ccc(NC(=O)Nc3ccc(C(F)(F)F)cc3)cc2[nH]1 [Compound 255] |
| > 30 |  | O=C(Nc1cc(F)c(N2CCC(F)(F)CC2)c(F)c1)Nc1ccc2[nH]ccc2c1 [Compound 293] |
| > 30 |  | O=C(Nc1ccc(C(F)(F)F)cc1)Nc1cc(C(=O)O)c2cc[nH]c2c1 [Compound 166] |
| > 30 |  | O=C(Nc1ccc2c(c1)CCC2)Nc1ccc2[nH]ccc2c1 [Compound 359] |
|  | 1 to 5 | FC(F)(F)c1cc2nc(Nc3ccc4cc[nH]c4c3)ccc2cc1Cl [Compound 556] |
| > 30 |  | c1cnc2c(Nc3ccc4cc[nH]c4c3)nccc2c1 [Compound 407, N-(1H-indol-6-yl)-1,7-naphthyridin-8-amine] |
| > 30 |  | CC1(CNC(=O)Nc2ccc3cc[nH]c3c2)CCC(F)(F)CC1 [Compound 171] |
|  | 5 to 100 | CCC(NC(=O)Nc1ccc2[nH]ccc2c1)c1cccc(C(F)(F)F)c1 (stereo not shown) [Compound 313] |
| > 30 |  | CC(C)c1ccc(NC(=O)Nc2ccc3[nH]ccc3c2)cc1 [Compound 347] |

| EC50 (numeric bounds) [µM] | EC50 (class symbols) [µM] | Structure (SMILES) |
| --- | --- | --- |
|  | 0.2 to 1 | O=C(Nc1ccc(C(F)(F)F)c(Cl)c1)Nc1ccc2cc[nH]c2c1 [Compound 244] |
|  | 5 to 100 | CN(C)S(=O)(=O)c1cccc(NC(=O)Nc2ccc3cc[nH]c3c2)c1 [Compound 198] |
| > 30 |  | O=C(NCCOc1cccc(Br)c1)Nc1ccc2[nH]ccc2c1 [Compound 295] |
| > 30 |  | CCc1ccccc1NC(=O)Nc1ccc2[nH]ccc2c1 [Compound 363, 1-(2-ethylphenyl)-3-(1H-indol-5-yl)urea] |
| > 30 |  | O=C(NCCc1cccc(Cl)c1)Nc1ccc2[nH]ccc2c1 [Compound 354] |
|  | 1 to 5 | C[C@@H](NC(=O)Nc1cc(Cl)c2cc[nH]c2c1)c1cc(Cl)cc(C(F)(F)F)c1 [Compound 521, (R)-1-(4-chloro-1H-indol-6-yl)-3-(1-(3-chloro-5-(trifluoromethyl)phenyl)ethyl)urea] |
| > 30 |  | O=C(NCCc1ccccc1Br)Nc1ccc2cc[nH]c2c1 [Compound 184] |
|  | 5 to 100 | CN(C)S(=O)(=O)c1ccc(NC(=O)Nc2ccc3cc[nH]c3c2)cc1 [Compound 202] |
|  | 0.2 to 1 | FC(F)(F)c1c(Cl)ccc2nc(Nc3ccc4cc[nH]c4c3)ccc12 [Compound 553] |
| > 30 |  | CC(C)(C)OC(=O)N1CC(CCNC(=O)Nc2ccc3[nH]ccc3c2)C1 [Compound 316] |
| > 30 |  | CC(=O)c1c[nH]c2cc(NC(=O)Nc3ccc(C(F)(F)F)cc3)ccc12 [Compound 522] |
|  | 0.2 to 1 | O=C(Nc1ccc(S(=O)(=O)C(F)(F)F)cc1)Nc1ccc2cc[nH]c2c1 [Compound 200] |
| > 30 |  | CC(F)(F)c1ccnc(Nc2ccc3cc[nH]c3c2)c1 [Compound 416, N-(4-(1,1-difluoroethyl)pyridin-2-yl)-1H-indol-6-amine] |
|  | 1 to 5 | O=C(NCCc1ccccc1Cl)Nc1ccc2cc[nH]c2c1 [Compound 211] |
|  | 0.04 to 0.2 | CCCCc1cccc(NC(=O)Nc2ccc3cc[nH]c3c2)c1 [Compound 270] |
|  | 0.2 to 1 | FC(F)(F)c1cc(Cl)cc2nc(Nc3ccc4cc[nH]c4c3)ccc12 [Compound 563] |
